Results reported in patent US5648379A (priority 1990, dated 1997).
≈ marks a conversion by molar mass, not a printed value. Entries after “also recorded” stand apart in the source; their conditions may differ.

How the values were obtained:
[1] = literature; cited from earlier work
neuraminidase = conditions: literature; cited from earlier work
influenza virus = assay: microbe, parasite or virus in culture; format: cell-based; conditions: unidentified influenza virus, read-out: IC50 plaque reduction
[2] = Effective dose in vivo (statement in description); conditions: compared with DANA
[3] = test system: Neuraminidase in at least some strains of influenza or parainfluenza viruses; conditions: in vitro; Zakstel'skaya et al. 1972; cited from earlier work
[4] = test system: H2N2 influenza A virus (A/Sing/1/57); format: in vivo, mice
[5] = test system: influenza A/Singapore/1/57 (H2N2); assay: microbe, parasite or virus in culture; format: cell-based; conditions: H2N2, MDCK, 72 h, read-out: IC50 Plaque Reduction, Influenza A
[6] = test system: Influenza B/Victoria/102/85; assay: microbe, parasite or virus in culture; format: cell-based; conditions: MDCK, 72 h, read-out: IC50 Plaque Reduction, Influenza B
sheep neuraminidase = assay: In vitro inhibition of sheep neuraminidase; format: biochemical; conditions: pH 4.5
[7] = test system: Vibrio cholerae neuraminidase; conditions: literature; cited from earlier work

O=C(O)C1=C[C@H](O)[C@@H](NC(=O)C(F)(F)F)[C@H]([C@H](O)[C@H](O)CO)O1 [FANA, 2-deoxy-2,3-dehydro-N-trifluoroacetyl-neuraminic acid]
anti-viral activity in vivo [1]: not to possess in vivo anti-viral activity; also recorded: inactive in vivo
activity among neuraminidase inhibitors of the DANA type (neuraminidase): most active

COC(=O)C1=C[C@H](O)[C@@H](NC(C)=O)[C@H]([C@H](O)[C@H](O)CO)O1 [methyl ester of DANA]
IC50 (influenza virus): 50 to 100 µg/mL (≈ 164 to 328 µM)
effective dose, in words [2]: effective at proportionally higher dose

O=C1CNC(=O)[C@H]([C@H](O)[C@H](O)CO)O1 [3-aza-2,3,4-trideoxy-4-oxo-D-arabinoctonic acid δ-lactone]
inhibition of influenza or parainfluenza virus neuraminidase [3]: inhibited in vitro

CC(=O)N[C@H]1[C@H]([C@H](O)[C@H](O)CO)OC(C(=O)O)=C[C@@H]1N=C(N)N [Compound 7, Ammonium 5-Acetamido-4-guanidino-2,3,4,5-tetradeoxy-D-glycero-D-galacto-non-2-enopyranosonate]
% AUC (lung virus titre, compared to untreated mice) ([4]; Experiment 2, 12.5 mg/kg intranasal, days 1-3): 0.03%
titre of virus in lung tissue ([4]; intranasal, before and during challenge, 1 to 3 days after infection): reduced the titre of virus in lung tissue
IC50 [5]: 1.6 µM
IC50 [6]: 1.6 µM
Ki (sheep neuraminidase): > 10000 µM

CC(=O)NC1C(O)CC(C(=O)O)OC1C(O)C(O)CO (centres unmarked)
inhibition of Vibrio cholerae neuraminidase [7]: did not inhibit
